Laboratory results from US12427149B2, “Methods and compositions for the prevention and treatment of hearing loss” (Ting Therapeutics, Inc., priority 2019, dated 2025).
Like-named read-outs stand apart in the source and are kept apart here.

Legend:
HEI-OC1 cells [1] = test: Protection against cisplatin-induced Caspase-3/7 activity in HEI-OC1 cells (Caspase-Glo 3/7); assay type: cell-based, mouse; conditions: for IC50: Mus musculus, HEI-OC1; for protection against cisplatin-induced cell death in HEI-OC1 (in words): kinase inhibitor library screen
Method: A screen of a library composed of 75 kinase inhibitors was conducted to identify inhibitors that protect against cisplatin-induced hair cell loss.

mouse cochlear explants = test: tissue or blood; conditions: for IC50: Mus musculus; for protection against cisplatin-induced hair cell loss/death in mouse cochlear explants (in words): cisplatin 150 μM
Method: Dab alone or Dab added 1 h before cisplatin (150 μM) to P3 FVB cochlear explants for 24 h.
Now referring to FIG. 9, testing of a B-Raf/MEK1/2 inhibitor combination in mouse cochlear explant cultures. Compounds alone or combination of the compounds were added 1 h before cisplatin (150 μM) to P3 FVB cochlear explants for 24 h, and number of outer hair cells per 160 μm of middle turn regions of the cochlea were counted by phalloidin staining, mean±SEM, P=*<0.05, P=***<0.001, compared to cisplatin alone by unpaired two-tailed Student's t-test.
Methods of using a zebrafish model system to evaluate small molecules capable of decreasing, inhibiting or preventing sensory hair cell damage or death are provided. Zebrafish are an advantageous animal model system for studying causes and prevention of hearing loss in comparison to mammalian animal model systems. The relative inaccessibility of hair cells in mammalian organisms limits their use as a high throughput model for identifying compounds that would prevent toxin mediated and other forms of hair cell death from occurring. The lateral line neuromast hair cells of zebrafish (Danio rerio) are structurally and functionally similar to mammalian sensory hair cells. […] Compounds alone or compounds added 1 h before cisplatin (150 μM) to P3 FVB cochlear explants for 24 h, and number of outer hair cells per 160 μm of middle turn regions of the cochlea were counted by phalloidin staining, mean±SEM, P=*<0.05, P=**<0.005, ***P<0.0005 compared to cisplatin alone by unpaired two-tailed Student's t-test.
Compounds alone (purple bar) or combination of the compounds were added 1 h before cisplatin (150 μM) to P3 FVB cochlear explants for 24 hrs, and number of outer hair cells per 160 μm of middle turn regions of the cochlea were counted by phalloidin staining, mean±SEM, P=*<0.05, P=**<0.005, compared to cisplatin alone by unpaired two-tailed Student's t-test.

[2] = system: zebrafish lateral line neuromast hair cells; test: Protection of zebrafish lateral line neuromast hair cells in vivo against cisplatin; design: species or system zebrafish (Danio rerio)
Method: Lateral line neuromasts of zebrafish were stained and number of hair cells per neuromast were counted. Cisplatin (CP): 400 μM. *, **, and ***: P<0.05, 0.01, and 0.001 compared to CP alone.
Protection of zebrafish lateral line neuromast hair cells in vivo. […] After the treatment, animals were transferred to fresh fish water to recover for 1 hour and then fixed and immunostained for GFP and otoferlin. Quantification of the number of hair cells per neuromast after the different treatments represented as mean+/−SEM. Student's t test was performed, *p<0.05, **p<0.01, ***p<0.001, compared versus CP 400 μM. Neuromasts inspected: SO3 (supraorbital line neuromast) and O1-2 (otic line neuromasts) from at least 3 different animals.

B-RAF, ERK and MEK = test: Western blots of cisplatin activated B-Raf signaling cascade in HEI-OC1 cells; assay type: cell-based, mouse; conditions: 50 μM cisplatin, 1 hour; dose dependent
Source text: Western blots show representative changes of each signaling molecule upon cisplatin and Dab treatment at specific doses (5B) and times (5A).

HEI-OC1 cells [3] = conditions: CELLTITER-GLO
[4] = read-out: IC50, protection against cisplatin-induced hair cell loss in mouse cochlear explants
[5] = Table 1, read-out: HEI-OC1 cell line IC50
[6] = read-out: Mouse cochlear explant IC50

SMILES	LD50 in mouse cochlear explants (mouse cochlear explants; FVB, mouse, 24 h)	IC50 (mouse cochlear explants; [4])	protection against cisplatin-induced hair cell loss/death in mouse cochlear explants (in words) (mouse cochlear explants)	IC50 (HEI-OC1 cells [1]; [5])	protection against cisplatin-induced cell death in HEI-OC1 (in words) (HEI-OC1 cells [1])	IC50 (mouse cochlear explants; [6])	further results
CCOc1cc2ncc(C#N)c(Nc3ccc(F)c(Cl)c3)c2cc1NC(=O)/C=C/CN(C)C [Pelitinib]							IC50 (HEI-OC1 cells [1]; cisplatin-Caspase-Glo 3/7, read-out: IC50, protection against cisplatin-induced Caspase-3/7 activity in HEI-OC1 cells): 600 nM; protection of outer hair cells against cisplatin-induced hair cell loss in mouse cochlear explants (mouse cochlear explants; 1 hour pre-incubation, N=3): 49%
CCCS(=O)(=O)Nc1ccc(F)c(C(=O)c2c[nH]c3ncc(-c4ccc(Cl)cc4)cc23)c1F [Vemurafenib]	greater than 3 μM	~200 nM					
Cn1c(Nc2ccc(C(F)(F)F)cc2)nc2cc(Oc3ccnc(-c4ncc(C(F)(F)F)[nH]4)c3)ccc21 [RAF-265]	greater than 3 μM	20 nM	protected				
O=C(Nc1cccc(Cl)c1)Nc1ncc(CCNc2ncnc3ccsc23)s1 [SNS-314]			protected	7490 nM	potently protected	50 nM	protection against cisplatin-induced hair cell loss/death in mouse cochlear explants (in words) (mouse cochlear explants; listed as SNS314): potently protected
CC(C)(C)c1nc(-c2cccc(NS(=O)(=O)c3c(F)cccc3F)c2F)c(-c2ccnc(N)n2)s1 [Dabrafenib]	13.47 µM	30 nM	potently protected	13500 nM	potently protected	30 nM	Zebrafish cisplatin protection at concentration ([2]; FIG. 11A): 0.100 µM; Zebrafish protection ([2]; Table 1, protective concentration, cisplatin 400 μM): 0.100 µM; effect on cisplatin-mediated activation of B-RAF, ERK and MEK (in words) (B-RAF, ERK and MEK): mitigates
FC(F)(F)c1ccc(/C=C/c2nc(COc3ccc(CCCCn4ccnn4)cc3)co2)cc1 [Mubritinib]		2.5 nM	potently protected	39 nM	potently protected	2 nM	IC50 (HEI-OC1 cells [1]; read-out: IC50, protection against cisplatin-induced Caspase-3/7 activity in HEI-OC1 cells): 4 nM; LD50 in mouse cochlear explants (mouse cochlear explants; FVB, mouse): > 0.5 µM; LD50 in HEI-OC1 cells (HEI-OC1 cells [3]): > 55 µM
CCCS(=O)(=O)Nc1ccc(F)c(C(=O)c2c[nH]c3ncc(Cl)cc23)c1F [PLX-4750]		200 nM	protected				
CC(=O)Nc1cccc(-n2c(=O)n(C3CC3)c(=O)c3c(Nc4ccc(I)cc4F)n(C)c(=O)c(C)c32)c1 [Trametinib]		50 nM					LD50 in mouse cochlear explants (mouse cochlear explants): greater than 3 μM
CC1(COc2ccc3c(c2)ncn3-c2ccc3cccc(N4CCC(N)CC4)c3n2)COC1 [Crenolanib]				2400 nM	potently protected	350 nM	protection against cisplatin-induced hair cell loss/death in mouse cochlear explants (in words) (mouse cochlear explants; listed as CRENOLANIB): potently protected; protection against cisplatin-induced hair cell loss/death in mouse cochlear explants (in words) (mouse cochlear explants; listed as crenolanib): protected
